Test [1] addresses T1, PKD1 Ser916 phosphorylation in PANC-1 cells (Homo sapiens, UniProt Q15139).
T1 construct: endogenous in cells; host or cells: PANC-1 (ATCC CRL-1469)
T1 sequence (Q15139 1-912): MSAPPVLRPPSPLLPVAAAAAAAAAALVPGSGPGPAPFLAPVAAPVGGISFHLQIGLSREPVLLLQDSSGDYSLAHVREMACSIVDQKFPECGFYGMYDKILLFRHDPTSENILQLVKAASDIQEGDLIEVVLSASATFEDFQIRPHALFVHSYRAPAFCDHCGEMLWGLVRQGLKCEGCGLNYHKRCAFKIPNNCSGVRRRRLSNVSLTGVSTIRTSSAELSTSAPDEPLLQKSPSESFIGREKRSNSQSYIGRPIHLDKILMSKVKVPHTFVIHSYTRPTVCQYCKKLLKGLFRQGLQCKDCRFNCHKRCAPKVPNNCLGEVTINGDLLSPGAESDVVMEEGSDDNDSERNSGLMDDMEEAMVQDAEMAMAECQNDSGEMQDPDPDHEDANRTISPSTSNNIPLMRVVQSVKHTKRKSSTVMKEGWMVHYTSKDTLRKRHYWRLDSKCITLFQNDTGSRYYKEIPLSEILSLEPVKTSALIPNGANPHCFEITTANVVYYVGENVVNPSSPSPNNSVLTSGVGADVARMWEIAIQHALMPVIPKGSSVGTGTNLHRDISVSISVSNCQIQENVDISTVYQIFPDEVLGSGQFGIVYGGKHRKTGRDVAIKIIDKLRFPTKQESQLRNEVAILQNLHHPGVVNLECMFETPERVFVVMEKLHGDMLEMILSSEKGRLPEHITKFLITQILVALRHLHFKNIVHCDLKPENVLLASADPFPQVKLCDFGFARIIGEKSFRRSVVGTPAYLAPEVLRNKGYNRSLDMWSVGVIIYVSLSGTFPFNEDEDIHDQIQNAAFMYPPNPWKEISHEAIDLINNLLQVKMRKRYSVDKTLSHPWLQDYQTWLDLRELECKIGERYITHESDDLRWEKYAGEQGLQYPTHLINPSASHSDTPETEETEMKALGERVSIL
The test is described as follows: Western Blot 916 (Phospho-Ser916 PKD1) Assay in PDBu-stimulated PANC-1 cells. The class given is cell-based. To be noted: 2-30 μM compound for 1 hour, then 200 nM PDBu 10 minutes, densitometry of western blot, read-out: IC50 for inhibition of PDBu-stimulated PKD1 Ser916 phosphorylation. The protocol:
Western Blot 916 (Phospho-Ser916 PKD1) Assay
PANC-1 (ATCC CRL-1469) cells were seeded in 6 well plates. After overnight serum starvation of cells, cells were washed twice in 1 mL serum-free media per well, then treatments were added in serum-free media.
Cells were treated with 2 μM, 5 μM, 10 μM, or 30 μM of an amino-ethyl-amino-aryl (AEAA) compound or with 3 μM GF1 (2-[1-(3-Dimethylaminopropyl)-1H-indol-3-yl]-3-(1H-indol-3-yl)-maleimide, a PKC inhibitor), for comparison purposes, for 1 hour. Then, 200 nM PDBu (phorbol, 12,13-dibutyrate) was added to the wells for 10 minutes. Two wells were used per treatment.
Cells were then scraped into lysis buffer (40 μL per well), samples were homogenised, and protein concentration determined. […]
FIG. 4 is a photographic depiction of the western blot analysis of cell lysates of PANC-1 cells which were treated with increasing amounts (2, 5, 10, 30 μM) of an amino-ethyl-amino-aryl (AEAA) compound (XX-032). Cell lysates were analysed using an anti-PKD1 Antibody (middle panel), anti-phospho-PKD1 (Ser916) Antibody (top panel) and anti-tubulin antibody (lower panel).
The shown columns represent the percentage phosphorylation as measured by densitometry of phospho-PKD1 (Ser916) levels. The results were normalised to the measured PKD1 levels and expressed as a percentage of the level of phosphorylation in the PDBu-stimulated control.

Test [2] has as its system PANC-1 cells. The test is described as follows: Neurotensin Proliferation Assay (BrdU incorporation, FACS). The class given is cell-based, human. Conditions: 5 μM compound, 50 nM neurotensin. The protocol:
Neurotensin Proliferation Assay
BrdU incorporation into PANC-1 cells was used to measure DNA synthesis and thus the level of cell proliferation. Cells were seeded in 10 cm^2 cell culture dishes in (1×10^6 cells/well in E4+10% FCS). After serum starvation (24 hours), cells were treated with an amino-ethyl-amino-aryl (AEAA) compound for 1 hour before addition of neurotensin (50 nM final concentration). Cells were then incubated for a further 23 hours before addition of BrdU (10 μM) for the final 1 hour. Samples were fixed using 70% ethanol and labelled with an anti-BrdU antibody (Becton Dickinson Cat No. 347580, Lot No. 13467) followed by a rabbit polyclonal anti-mouse-FITC antibody (DakoCytomation Cat No. F0313, Lot No. 00015066) and propidium iodide. Samples were then analysed by Fluorescent Activated Cell Sorting (FACS). The measured fluorescence was directly proportional to the incorporated BrdU.
FIG. 6 is a graphic representation of the results of the neurotensin proliferation assay. The columns in the graph represent the mean percentage of BrdU incorporation into PANC-1 cells as a measure for cell proliferation. The two left-hand columns represent the controls of DMSO (basal level of non-stimulated cell proliferation) and DMSO plus 50 nM neurotensin (stimulated cell proliferation). […]
(In general: Incorporation of labelled thymidine or its analogues reports DNA synthesis.)

In test [3] the test system is PANC-1 cells. In words: MTT Assay (cell viability). Type of test: cell-based, human. To be noted: 5 μM, 48 hours. The method, then: The MTT (3-[4,5-dimethylthiazol-2-yl]-2,5-diphenyltetrazolium bromide) assay can be used to assess the effect of compounds on cell viability and proliferation and to determine whether a compound is cytotoxic. In living cells, the tetrazolium salt (MTT) is reduced to a coloured formazan product (1-[4,5-dimethylthiazol-2-yl]3,5-diphenylformazan), which can be quantified. The reduction of MTT is attributed to the mitochondrial function of cells.
PANC-1 cells were seeded into 96 well plates (1×10^4 cells/well in E4+10% FCS) and placed in an incubator at 37° C., 5% CO2 overnight. Cells were serum starved (E4+0.5% FCS) for 16 hours and then treated with an amino-ethyl-amino-aryl (AEAA) compound (XX-032) in full media for 1 hour prior to treatment with Neurotensin (50 nM) for a further 23 hours or 47 hours (in E4+0.5% FCS; total exposure to test compound was 24 hours or 48 hours; 37° C. 5% CO2). At the appropriate timepoint plates were removed from the incubator and the media was aspirated off. 50 μL per well of 2 mg/mL MTT solution was added and the plates were placed back into the incubator for 2.5 to 4 hours. After incubation, the plates were removed from the incubator and the MTT solution was completely aspirated off the cells. […] The plates were read in a 96 well plate reader at 562 nm (Lab Systems, Ascent Multiscan).

The subject of test [4] is PANC-1 cells. The test is described as follows: Apoptosis Assay (Caspase-Glo caspase 3/7 activity). The class given is cell-based, human. To be noted: 5 μM, 48 hours. The method, then: PANC-1 cells were seeded into 96 well plates (1×10^4 cells/well in E4+10% FCS) and placed in an incubator at 37° C., 5% CO2 overnight. Cells were serum starved (E4+0.5% FCS) for 16 hours and then treated with an amino-ethyl-amino-aryl (AEAA) compound in full media for 1 hour prior to treatment with Neurotensin (NT; 50 nM) for a further 23 hours or 47 hours (in E4+0.5% FCS; total exposure to test compound was 24 hours or 48 hours). Cells were then assayed for Caspase3/7 activity (Caspase-Glo; Promega) according to the manufacturer's instructions.
The Caspase-Glo assay is a homogenous luminescent assay that measures caspase 3 and 7 activities. […] When added to the cell samples, these reagents result in cell lysis, followed by caspase cleavage of the substrate and generation of a luminescent signal produced by luciferase, whereby the luminescence is proportional to the amount of caspase activity present. […]
The depicted columns show the change in viability or induction of apotosis in the presence of an amino-ethyl-amino-aryl (AEAA) compound (XX-032). Cell viability was measured by the MTT assay at two different time points (24 and 48 hours) and induction of apoptosis was measured by the caspase assay at two different time points (24 and 48 hours). The data are expressed as a percentage of the level in the corresponding control.

Test [5] concerns the target T2, Murine PKD1 kinase domain (Mus musculus, UniProt Q62101, R683W).
T2 construct: hexahistidine (His6, pFastBac HTb leader) (N); made in house; host or cells: Sf9 insect cells, baculovirus (Bac-to-Bac HT)
T2 sequence (Q62101 with tags, fused parts or gaps R683W): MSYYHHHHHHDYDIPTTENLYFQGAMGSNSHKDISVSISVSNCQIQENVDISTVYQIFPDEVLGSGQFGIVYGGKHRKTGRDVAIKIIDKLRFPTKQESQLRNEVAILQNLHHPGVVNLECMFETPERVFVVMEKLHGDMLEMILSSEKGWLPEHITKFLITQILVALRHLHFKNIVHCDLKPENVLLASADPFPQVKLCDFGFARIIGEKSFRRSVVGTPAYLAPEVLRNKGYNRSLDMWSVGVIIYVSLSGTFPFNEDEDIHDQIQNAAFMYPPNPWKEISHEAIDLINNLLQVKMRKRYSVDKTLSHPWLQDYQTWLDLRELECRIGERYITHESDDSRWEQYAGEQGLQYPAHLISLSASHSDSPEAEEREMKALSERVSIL
In words: PKD1 (Murine Kinase Domain) Enzyme Activity Assay (IMAP fluorescence polarisation). Type of test: biochemical. To be noted: 10 μM ATP, 10 point dose-response. An excerpt:
The DNA sequence corresponding to murine PKD1 (see FIG. 1) was inserted into pFastBAc Htb (Invitrogen, USA) at BamH1 and EcoR1 sites using standard molecular biology techniques.
The PKD1 described above was expressed as a hexahistidine tagged protein construct using a commercially available baculoviral expression system that induces protein production in insect cell culture (Bac-to-Bac® HT Baculovirus Expression System, Invitrogen). Protein was typically expressed by inoculating 1 L of sf9 cells with a genetically modified baculovirus containing the gene for the kinase domain of PKD1. Sf9 cells were obtained from ICR Ltd.
Purification of PKD1 was achieved by standard chromatographic procedures. Capture from crude centrifuged lysed cell supernatant was achieved using metal affinity chromatography (GE Healthcare Life Sciences, HiTrap Chelating chromatography column), and fractions showing PKD1 (as assessed by gel electrophoresis and western blot) were further purified by a single purification step. This was a performed using a mono Q anion exchange chromatography system (GE Healthcare Life Sciences, HiTrap HP Q column). […] This protocol describes the method for screening compounds as inhibitors of Protein Kinase D activity in a 384 well microplate format fluorescence polarisation IMAP assay performed using the Biomek FX. […]
(In general: Polarisation of emitted light reports the rotation of a fluorescent probe.)

In general, IC50 refers to the concentration that inhibits the measured activity by half.

Structures are written as SMILES.

In the case of `CC[C@@H](N)CNc1nc(-c2cc(Cl)ccc2O)nc2ccccc12` [XX-032, 2-[4-((R)-2-Amino-butylamino)-quinazolin-2-yl]-4-chloro-phenol], the IC50 in test [1] was approximately 4 µM. For the same molecule, the “Neurotensin-stimulated PANC-1 proliferation (BrdU incorporation)” value in the test on PANC-1 cells [2] is reported as “inhibited to basal levels”. The “decrease in cell viability (MTT)” value in the test with PANC-1 cells [3] amounted to 2 fold. In addition, the “increase in caspase 3/7 activity” value in the test on PANC-1 cells [4] was 5 fold.
Turning to `NCCNc1nc(-c2cc(Cl)ccc2O)nc2ccccc12` [XX-097, 2-[4-(2-Amino-ethylamino)-quinazolin-2-yl]-4-chloro-phenol], it took 0.016 µM to reach half-maximal inhibition in test [5] (IC50).

For the origin of these results see patent US20090247519A1, “AMINO-ETHYL-AMINO-ARYL (AEAA) COMPOUNDS AND THEIR USE” (priority 2006, published 2009).
